Reference: the supplement of paper PMC10307832

How the values were obtained:
Experiment in all cases: relative viability (nuclei count vs DMSO), 5 days (fraction); higher = more cells survive
RERF-LC-KJ = tested on: RERF-LC-KJ
Outline: (§1)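 Five library-drug doses in √10 steps were combined with a fixed anchor-drug dose, or a single drug was given alone, by pin tool to lung cancer cell lines in 1536-well plates the day after seeding. Nuclei were stained and counted after 5 days. Relative viability is the nuclei count in treated wells over that in vehicle wells, taken as the median of duplicate plates.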

NCI-H1734 = tested on: NCI-H1734
Outline: as §1

NCI-H661 = tested on: NCI-H661
Outline: as §1

NCI-H1975 = tested on: NCI-H1975
Outline: as §1

NCI-H1650 = tested on: NCI-H1650
Outline: as §1

LCLC-97TM1 = tested on: LCLC-97TM1
Outline: as §1

NCI-H2228 = tested on: NCI-H2228
Outline: as §1

HCC-827 = tested on: HCC-827
Outline: as §1

PC-3 [JPC-3] = tested on: PC-3 [JPC-3]
Outline: as §1

HCC-15 = tested on: HCC-15
Outline: as §1

NCI-H1755 = tested on: NCI-H1755
Outline: as §1

CAL-12T = tested on: CAL-12T
Outline: as §1

H3255 = tested on: H3255
Outline: as §1

NCI-H322M = tested on: NCI-H322M
Outline: as §1

EKVX = tested on: EKVX
Outline: as §1

PC-14 = tested on: PC-14
Outline: as §1

NCI-H1355 = tested on: NCI-H1355
Outline: as §1

NCI-H520 = tested on: NCI-H520
Outline: as §1

NCI-H2342 = tested on: NCI-H2342
Outline: as §1

NCI-H2405 = tested on: NCI-H2405
Outline: as §1

LK-2 = tested on: LK-2
Outline: as §1

`COc1nc(C)cnc1NS(=O)(=O)c1cccnc1-c1ccc(-c2nnco2)cc1` [Zibotentan] + CC(=O)c1c(C)c2cnc(Nc3ccc(N4CCNCC4)cn3)nc2n(C2CCCC2)c1=O [Palbociclib] (partner 0.5 µM) showed a relative viability (RERF-LC-KJ; first compound 0.08 µM) of 1.1, a relative viability (RERF-LC-KJ; first compound 0.253 µM) of 0.999 and a relative viability (RERF-LC-KJ; first compound 0.8 µM) of 1.08. It also gave a relative viability (RERF-LC-KJ; first compound 2.53 µM) of 1.14, a relative viability (NCI-H1734; first compound 0.08 µM) of 0.337 and a relative viability (NCI-H1734; first compound 0.253 µM) of 0.32. For the same molecule, the relative viability (NCI-H1734; first compound 0.8 µM) was 0.374, the relative viability (NCI-H1734; first compound 2.53 µM) was 0.407 and the relative viability (NCI-H661; first compound 0.08 µM) was 0.421. For the same molecule, the relative viability (NCI-H661; first compound 0.253 µM) was 0.384, the relative viability (NCI-H661; first compound 0.8 µM) was 0.455 and the relative viability (NCI-H661; first compound 2.53 µM) was 0.396. It also gave a relative viability (NCI-H1975; first compound 0.08 µM) of 0.517, a relative viability (NCI-H1975; first compound 0.253 µM) of 0.526 and a relative viability (NCI-H1975; first compound 0.8 µM) of 0.553. For the same molecule, the relative viability (NCI-H1975; first compound 2.53 µM) was 0.596, the relative viability (NCI-H1650; first compound 0.08 µM) was 0.335 and the relative viability (NCI-H1650; first compound 0.8 µM) was 0.357. It also gave a relative viability (NCI-H1650; first compound 2.53 µM) of 0.336, a relative viability (LCLC-97TM1; first compound 0.08 µM) of 0.236 and a relative viability (LCLC-97TM1; first compound 0.253 µM) of 0.247. It also gave a relative viability (LCLC-97TM1; first compound 0.8 µM) of 0.228, a relative viability (LCLC-97TM1; first compound 2.53 µM) of 0.253 and a relative viability (NCI-H2228; first compound 0.08 µM) of 0.762. It also gave a relative viability (NCI-H2228; first compound 0.253 µM) of 0.654, a relative viability (NCI-H2228; first compound 0.8 µM) of 0.821 and a relative viability (NCI-H2228; first compound 2.53 µM) of 0.897. For the same molecule, the relative viability (HCC-827; first compound 0.08 µM) was 0.437, the relative viability (HCC-827; first compound 0.253 µM) was 0.49 and the relative viability (HCC-827; first compound 0.8 µM) was 0.454. For the same molecule, the relative viability (HCC-827; first compound 2.53 µM) was 0.487, the relative viability (PC-3 [JPC-3]; first compound 0.08 µM) was 0.556 and the relative viability (PC-3 [JPC-3]; first compound 0.253 µM) was 0.548. For the same molecule, the relative viability (PC-3 [JPC-3]; first compound 0.8 µM) was 0.537, the relative viability (PC-3 [JPC-3]; first compound 2.53 µM) was 0.581 and the relative viability (HCC-15; first compound 0.08 µM) was 0.796. For the same molecule, the relative viability (HCC-15; first compound 0.253 µM) was 0.641, the relative viability (HCC-15; first compound 0.8 µM) was 0.796 and the relative viability (HCC-15; first compound 2.53 µM) was 0.713. For the same molecule, the relative viability (NCI-H1755; first compound 0.08 µM) was 0.421, the relative viability (NCI-H1755; first compound 0.253 µM) was 0.497 and the relative viability (NCI-H1755; first compound 0.8 µM) was 0.447. The relative viability (NCI-H1755; first compound 2.53 µM) was 0.453, the relative viability (CAL-12T; first compound 0.08 µM) was 0.625 and the relative viability (CAL-12T; first compound 0.253 µM) was 0.365. It also gave a relative viability (CAL-12T; first compound 0.8 µM) of 0.629, a relative viability (CAL-12T; first compound 2.53 µM) of 0.508 and a relative viability (H3255; first compound 0.08 µM) of 0.317. The relative viability (H3255; first compound 0.253 µM) was 0.318, the relative viability (H3255; first compound 0.8 µM) was 0.355 and the relative viability (H3255; first compound 2.53 µM) was 0.283. It also gave a relative viability (NCI-H322M; first compound 0.08 µM) of 0.465, a relative viability (NCI-H322M; first compound 0.253 µM) of 0.408 and a relative viability (NCI-H322M; first compound 0.8 µM) of 0.49. For the same molecule, the relative viability (NCI-H322M; first compound 2.53 µM) was 0.521, the relative viability (EKVX; first compound 0.08 µM) was 0.276 and the relative viability (EKVX; first compound 0.253 µM) was 0.354. The relative viability (EKVX; first compound 0.8 µM) was 0.37, the relative viability (EKVX; first compound 2.53 µM) was 0.5 and the relative viability (PC-14; first compound 0.08 µM) was 0.68. For the same molecule, the relative viability (PC-14; first compound 0.253 µM) was 0.459, the relative viability (PC-14; first compound 0.8 µM) was 0.607 and the relative viability (PC-14; first compound 2.53 µM) was 0.519. For the same molecule, the relative viability (NCI-H1355; first compound 0.08 µM) was 0.407, the relative viability (NCI-H1355; first compound 0.253 µM) was 0.418 and the relative viability (NCI-H1355; first compound 0.8 µM) was 0.388. The relative viability (NCI-H1355; first compound 2.53 µM) was 0.435, the relative viability (NCI-H520; first compound 0.08 µM) was 0.219 and the relative viability (NCI-H520; first compound 0.253 µM) was 0.208. For the same molecule, the relative viability (NCI-H520; first compound 0.8 µM) was 0.208, the relative viability (NCI-H520; first compound 2.53 µM) was 0.248 and the relative viability (NCI-H2342; first compound 0.08 µM) was 0.507. It also gave a relative viability (NCI-H2342; first compound 0.253 µM) of 0.557, a relative viability (NCI-H2342; first compound 0.8 µM) of 0.558 and a relative viability (NCI-H2342; first compound 2.53 µM) of 0.506. It also gave a relative viability (NCI-H2405; first compound 0.08 µM) of 0.544, a relative viability (NCI-H2405; first compound 0.253 µM) of 0.546 and a relative viability (NCI-H2405; first compound 0.8 µM) of 0.544. It also gave a relative viability (NCI-H2405; first compound 2.53 µM) of 0.55, a relative viability (LK-2; first compound 0.08 µM) of 0.609 and a relative viability (LK-2; first compound 0.253 µM) of 0.544. For the same molecule, the relative viability (LK-2; first compound 0.8 µM) was 0.62 and the relative viability (LK-2; first compound 2.53 µM) was 0.609.
